One compound from patent publication US20200148617A1, “GEMCABENE, PHARMACEUTICALLY ACCEPTABLE SALTS THEREOF, COMPOSITIONS THEREOF AND METHODS OF USE THEREFOR” (GEMPHIRE THERAPEUTICS INC., priority 2017, published 2020) can be followed below.

Molecules are shown by their SMILES.

Experiment [1] has as its system hepatic mRNA expression in STAM™ mice. As to the kind of experiment: Murine STAM model of NASH-HCC: hepatic gene expression by quantitative RT-PCR. Type of experiment: in vivo, mouse. The following applies: for TNF-α mRNA expression (relative, normalized to vehicle-treated normal group): mean±SD, vehicle STAM 3.6±1.0; for ADH-4 mRNA expression levels (relative): vehicle STAM 0.9±0.3; for CRP mRNA levels (relative): vehicle STAM 1.0±0.2; for NF-κB mRNA expression levels (relative): vehicle STAM 1.1±0.1; for MMP-2 mRNA expression levels (relative): vehicle STAM 1.9±0.7; for CCR2 mRNA expression levels (relative): vehicle STAM 3.5±1.7; for MCP-1 mRNA expression levels (relative): vehicle STAM 3.6±1.7; for Sulf-2 mRNA expression levels (relative): vehicle STAM 5.2±1.2; for MIP-1β mRNA levels (relative): vehicle STAM 5.6±2.0; for TIMP-1 mRNA expression (relative): vehicle STAM 12.9±9.0. On the procedure: A study was performed to evaluate the efficacy of gemcabene calcium salt hydrate Crystal Form 1 having a PSD90 of 52 μm as measured by laser light diffraction, in treating non-alcoholic steatosis hepatitis (NASH) in the murine STAM™ model of NASH-HCC.
Briefly, two-day old neonatal C57BL/6 male mice were administered low-dose streptozotocin (STZ), and were subsequently fed a HFC diet from 4 weeks of age. In this model, the mice typically develop liver steatosis and diabetes, reaching steatohepatitis within 3 weeks, followed by cirrhosis within 8 weeks, and carcinoma within 16 weeks. In the current study, mice were administered daily oral gemcabene calcium salt hydrate Crystal Form 1 starting at week 6 of age and were sacrificed at week 9. Telmisartan (with antisteatotic, anti-inflammatory and antifibrotic effects in STAM™ mice) was used as a positive comparator. A baseline reference group was administered vehicle at day 2 of age, and from week 6 of age was vehicle-treated and chow-fed. Five STAM™ groups were streptozocin-treated at day 2 of age and fed a HFC-diet beginning with week 4 of age. These STAM™ groups were orally administered from week 6 one of the following: water-vehicle, gemcabene calcium salt hydrate Crystal Form 1 at 30, 100 and 300 mg/kg daily, or telmisartan ([…]®) 10 mg/kg daily. Telmisartan ([…]®) was purchased from Boehringer Ingelheim GmbH (Germany) and dissolved in pure water. All groups were sacrificed at week 9. Vehicle, gemcabene calcium salt hydrate Crystal Form 1, or telmisartan were administered by oral gavage once daily.
Various gene expression markers of liver metabolism were evaluated by Real-Time PCR (RT-PCR) in all mouse groups. Total RNA was extracted from liver samples using RNAiso (Takara Bio, Japan) according to the manufacturer's instructions. One μg of RNA was reverse-transcribed using a reaction mixture containing 4.4 mM MgCl2 (F. Hoffmann-La Roche, Switzerland), 40 U RNase inhibitor (Toyobo, Japan), 0.5 mM dNTP (Promega, USA), 6.28 μM random hexamer (Promega), 5× first strand buffer (Promega), 10 mM dithiothreitol (Invitrogen, USA) and 200 U MMLV-RT (Invitrogen) in a final volume of 20 μL. The reaction was carried out for 1 hour at 37° C., followed by 5 minutes at 99° C. Real-time PCR was performed using real-time PCR DICE and SYBR premix Taq (Takara Bio). To calculate the relative mRNA expression level, the expression of each gene was normalized to that of reference gene 36B4 (gene symbol: Rplp0). Information of PCR-primer sets is described in Tables 20A-20C. Statistical analyses were performed using the Bonferroni Multiple Comparison Test on GraphPad Prism 6 (GraphPad Software Inc., USA). P values <0.05 were considered statistically significant. Results are expressed as mean±SD.
In order to calculate the relative mRNA expression level, the expression of each gene was normalized to that of the reference gene 36B4 (gene symbol: Rplp0). The gene expression levels were measured by quantitative RT-PCR. Results were normalized with values for the vehicle-treated normal group. […] Gemcabene calcium salt hydrate Crystal Form 1 (PSD90=52 μm) modulated the mRNA expression of many hepatic genes that play a significant role in the liver homeostasis and injury.

Experiment [2] relates to patients with hypercholesterolemia on stable statins. The experiment in a line: 12-week placebo-controlled study of 600 mg QD in hypercholesterolemia patients on stable moderate and high-intensity statins: atherogenic and inflammatory biomarkers. The following applies: add-on to background statins. Type of experiment: in vivo, human. The protocol: High-risk patients including some, but not all those with heterozygous familial hypercholesterolemia (HeFH) or atherosclerotic cardiovascular disease (ASCVD) on appropriate diet and stable statin therapy for at least 12 weeks and LDL-C ≥100 mg/dL (2.59 mmol/L) and triglycerides <500 mg/dL (5.65 mmol/L) were randomized into a 12-week, placebo-controlled, parallel-group, double-blind study to assess the efficacy of gemcabene calcium salt hydrate Crystal Form 1 (PSD90=52 μm) 600 mg (300-mg Tablet D×2) QD on LDL-C and other lipoproteins and hsCRP (high-sensitivity C-reactive protein). Safety and tolerability were also evaluated. […]
Within the study population, an analysis was performed in a subpopulation of patients having mixed dyslipidemia (LDL-C ≥100 mg/dL and triglycerides ≥200 and <500 mg/dL). Eighteen patients (10 (Tablet D×2) patients and 8 placebo patients) having a baseline mean LDL-C level of 142 mg/dL, baseline mean triglyceride level of 247 mg/dL and BMI of 34 kg/m^2 were analyzed (FIG. 48). Although not measured in the subpopulation of this Example, some cardiometabolic patients could have elevated sulphatase-2 (Sulf-2) levels, which are believed to cause reduced Syndecan-1 (also known as “remnant receptor”)-mediated clearance of atherogenic remnant lipoproteins. […]

For `CC(C)(CCCCOCCCCC(C)(C)C(=O)[O-])C(=O)[O-].O.[Ca+2]` [6-(5-Carboxy-5-methyl-hexyloxy)-2,2-dimethylhexanoic acid calcium (gemcabene calcium salt) hydrate Crystal Form 1], in experiment [1] (gemcabene 100 mg/kg), the “CCR5 mRNA expression levels (relative)” value is 1.4±0.3; the “TNF-α mRNA expression (relative, normalized to vehicle-treated normal group)” value was 2.0±0.8; the “ADH-4 mRNA expression levels (relative)” value is given as 0.6±0.1; the “CRP mRNA levels (relative)” value was 0.6±0.1. In experiment [1] (gemcabene 100 mg/kg), the “NF-κB mRNA expression levels (relative)” value is 0.9±0.1, the “MMP-2 mRNA expression levels (relative)” value is given as 0.5±0.2, the “CCR2 mRNA expression levels (relative)” value came out at 1.6±0.4 and the “MCP-1 mRNA expression levels (relative)” value came out at 1.7±0.7. Moreover, in experiment [1] (gemcabene 100 mg/kg), the “Sulf-2 mRNA expression levels (relative)” value was determined as 3.8±0.7, the “MIP-1β mRNA levels (relative)” value is 2.3±0.9 and the “TIMP-1 mRNA expression (relative)” value was 3.8±1.6. Besides, the “ACC-1 mRNA expression levels (relative)” value in experiment [1] (gemcabene 100 mg/kg, telmisartan 10 mg/kg, vehicle STAM 0.9±0.2) is given as 0.7±0.1. For the same compound, in experiment [1] (gemcabene 300 mg/kg), the “CCR5 mRNA expression levels (relative)” value was 1.3±0.3; the “TNF-α mRNA expression (relative, normalized to vehicle-treated normal group)” value is 1.9±0.7; the “ADH-4 mRNA expression levels (relative)” value amounted to 0.5±0.1; the “CRP mRNA levels (relative)” value was 0.5±0.1. In experiment [1] (gemcabene 300 mg/kg), the “NF-κB mRNA expression levels (relative)” value is 0.8±0.1, the “MMP-2 mRNA expression levels (relative)” value is 0.9±0.2, the “CCR2 mRNA expression levels (relative)” value was determined as 1.7±0.7 and the “MCP-1 mRNA expression levels (relative)” value amounted to 1.6±0.7. Also, in experiment [1] (gemcabene 300 mg/kg), the “Sulf-2 mRNA expression levels (relative)” value came out at 3.3±0.9, the “MIP-1β mRNA levels (relative)” value stood at 2.8±1.4 and the “TIMP-1 mRNA expression (relative)” value was found to be 4.4±2.1. Also, the “serum hsCRP” value in experiment [2] was “decreased”.
